Here are results for 3 compounds from paper PMC5091913, “Identification and Validation of Small-Gatekeeper Kinases as Drug Targets in Giardia lamblia” (PLoS Neglected Tropical Diseases, 2016).

Read-outs that look alike come from different tables or passages of the source.

One assay addresses T1, Gl50803_8445 (Giardia duodenalis, UniProt A8BXP9).
T1 construct: gene GL50803_008445
T1 sequence (A8BXP9 1-597): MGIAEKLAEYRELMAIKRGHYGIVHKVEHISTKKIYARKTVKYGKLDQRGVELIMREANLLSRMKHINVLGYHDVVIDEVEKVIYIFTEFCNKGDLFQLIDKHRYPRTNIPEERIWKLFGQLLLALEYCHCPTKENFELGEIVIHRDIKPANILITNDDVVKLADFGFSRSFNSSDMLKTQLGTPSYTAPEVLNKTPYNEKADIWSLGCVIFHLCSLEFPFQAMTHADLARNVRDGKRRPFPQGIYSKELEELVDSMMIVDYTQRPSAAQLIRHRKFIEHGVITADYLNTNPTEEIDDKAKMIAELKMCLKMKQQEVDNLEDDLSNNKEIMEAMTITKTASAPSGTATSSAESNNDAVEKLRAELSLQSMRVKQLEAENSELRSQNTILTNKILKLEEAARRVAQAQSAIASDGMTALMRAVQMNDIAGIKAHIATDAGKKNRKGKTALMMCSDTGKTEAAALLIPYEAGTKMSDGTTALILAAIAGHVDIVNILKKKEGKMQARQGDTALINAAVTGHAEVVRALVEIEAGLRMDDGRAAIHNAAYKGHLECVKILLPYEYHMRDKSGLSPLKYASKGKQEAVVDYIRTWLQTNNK
Description: thermal shift assay. Format: binding. To be noted: also printed as 2°–3°.

Another assay addresses T2, Gl50803_16034 (Giardia duodenalis, UniProt A8BHW1).
T2 construct: gene GL50803_0016034
T2 sequence (A8BHW1 1-432): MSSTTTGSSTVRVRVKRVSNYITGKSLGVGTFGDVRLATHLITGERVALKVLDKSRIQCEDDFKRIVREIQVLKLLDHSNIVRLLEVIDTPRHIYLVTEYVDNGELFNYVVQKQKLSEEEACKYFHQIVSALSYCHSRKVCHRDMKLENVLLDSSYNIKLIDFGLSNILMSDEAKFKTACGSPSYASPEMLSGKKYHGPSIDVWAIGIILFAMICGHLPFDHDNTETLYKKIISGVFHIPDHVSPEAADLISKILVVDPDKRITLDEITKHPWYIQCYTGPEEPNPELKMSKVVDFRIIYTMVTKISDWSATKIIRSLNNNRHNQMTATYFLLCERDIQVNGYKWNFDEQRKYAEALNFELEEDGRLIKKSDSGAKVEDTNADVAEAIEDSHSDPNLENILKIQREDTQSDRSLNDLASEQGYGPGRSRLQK
Description: thermal shift assay. Format: binding.

With `CCOc1ccc2cc(-c3nc(C(C)(C)C)n4ccnc(N)c34)ccc2c1` [compound 1213, 1213], the ΔTm at Gl50803_8445 and at Gl50803_16034 (also printed as 2°–3°) was ~ 3 ° in each case.
In the case of `Nc1ncnc2c1c(-c1ccc(-c3ccccc3)cc1)nn2CC1CCNCC1` [compound 1244, 1244], the ΔTm at Gl50803_16034 was 5.2 °.
The same measure, in the same setting: under `Nc1ncnc2c1c(-c1ccc3nc(-c4ccccc4)oc3c1)nn2CC1CCNCC1` [compound 1264, 1264] stands 6.5 °.
